Data reported in paper PMC10381309 (Journal of Fungi, 2023).
Values after ≈ are worked out from the molar mass of the structure shown. Read-outs that look alike come from different tables or passages of the source.

Tests used:
[1] = system: Cladophialophora carrionii (CFP 00910); conditions: C. carrionii; PDA; 7 days, 37 °C; albendazole at ½ MIC
Experimental: (§3) At the end of the seven days of incubation at 37 °C, the plates were read visually. The aspect of the colonies supplemented with albendazole were compared to those of the positive melanin and inhibition melanin controls, to determine whether the color of the albendazole-supplemented cultures resembled the positive DHN-melanin or the melanin inhibition control. Pictures of the colonies were captured using a Canon EOS Rebel T7+ digital camera.

[2] = system: Fonsecaea pedrosoi (CFP 00791); conditions: F. pedrosoi; PDA; 7 days, 37 °C; albendazole at ½ MIC
Experimental: as §3

[3] = system: Exophiala heteromorpha (ATCC 28180); conditions: E. heteromorpha; PDA; 7 days, 37 °C; albendazole at ½ MIC
Experimental: as §3

[4] = system: Fonsecaea pedrosoi (CFP 00791); assay: NIH Clinical Collection screening for antifungal activity (growth inhibition, OD 530 nm); assay type: cell-based; conditions: 10 µM, CFP00791 Fonsecaea pedrosoi isolate, 72–96 h; for inhibition at 10 µM: read-out: % Growth Inhibition
Experimental: These substances are part of the NIH Roadmap Molecular Libraries Screening Centers Network screening library, a collection of chemically diverse substances in Phase I-III clinical trials. Each substance was initially diluted to 1 mM in DMSO and stored at −20 °C until use. […] The final DMSO concentration corresponded to 0.5% v/v. The inoculum was prepared according to the protocol for filamentous fungi proposed by the European Committee on Antimicrobial Susceptibility Testing—EUCAST, with minor modifications. […] After growth, conidia were suspended in 3 mL of sterile distilled water with 0.1% Tween 20, vortexed, and the concentration adjusted to the 0.5 McFarland scale. The suspension was then diluted 1:10 in order to obtain a final working inoculum at 2–5 × 10^5 CFU/mL. Next, 100 µL of the inoculum was added to each well and the plates incubated at 35 °C for 72–96 h. Negative and positive controls consisted of culture medium alone and drug-free culture medium with the fungal inoculum previously described, respectively. Plates were read using a microplate reader (Epoch, Biotek, Wenusky, VT, USA) with a 530 nm filter to obtain the optical density. All plates were also visually read to confirm the equipment data. A calculation was performed to obtain the percentage of inhibition of fungal growth, according to the formula: (1 − (OD1/OD2)) × 100, where OD1 = optical density of the fungus in the presence of the drug; and OD2 = optical density of the growth control drug-free well.

[5] = system: different species that cause CBM; assay: MIC determination of hit drugs, stated over the panel of CBM agents; assay type: cell-based
Text: In this study, eight fungal isolates obtained from the Fiocruz Pathogenic Fungi Collection (CFP) and the American Type Culture Collection (ATCC®) were used. Fonsecaea pedrosoi (CFP 00791) was used throughout the study. This species is one of the main CBM agents worldwide. Cladophialophora carrionii (CFP 00910), Phialophora verrucosa (CFP 00937), Fonsecaea monophora (CFP 00911), Fonsecaea nubica (CFP 00912), Rhinocladiela similis (CFP 00790), Exophiala heteromorpha (ATCC® 28180), and Exophiala dermatitidis (ATCC® 28869) were used to determine the minimum inhibitory concentration (MIC) and in synergism assays. Strains were maintained on potato dextrose agar (PDA) (Sigma Chemical Corporation, St. Louis, MO, USA). Seven-day cultures incubated at 30 °C were used in the assays.
(§1) Minimum inhibitory concentrations (MICs) were determined using the method proposed by the European Committee on Antimicrobial Susceptibility Testing (EUCAST), with minor modifications. Hit drugs were serially diluted (80 μM to 0.15625 μM) in RPMI 1640 (twice concentrated, pH 7; supplemented with 2% glucose) buffered with MOPS in 96-well plates. The inoculums of all strains were prepared following the EUCAST protocol. Plates were incubated at 35 °C for 72–96 h. The MIC of the NCC substances was determined as the lowest concentration capable of inhibiting 100% of fungal growth when compared to the growth control well. MIC values were determined in duplicate.

[6] = system: Exophiala heteromorpha (ATCC 28180); assay: MIC determination (EUCAST, minor modifications); assay type: cell-based; conditions: E. heteromorpha
Experimental: as §1

[7] = system: Fonsecaea monophora (CFP 00911); assay: MIC determination (EUCAST, minor modifications); assay type: cell-based; conditions: F. monophora
Experimental: as §1

[8] = system: Cladophialophora carrionii (CFP 00910); assay: MIC determination (EUCAST, minor modifications); assay type: cell-based; conditions: C. carrionii
Experimental: as §1

[9] = system: Exophiala dermatitidis (ATCC 28869); assay: MIC determination (EUCAST, minor modifications); assay type: cell-based; conditions: E. dermatitidis
Experimental: as §1

[10] = system: Rhinocladiela similis (CFP 00790); assay: MIC determination (EUCAST, minor modifications); assay type: cell-based; conditions: R. similis
Experimental: as §1

[11] = system: Fonsecaea pedrosoi (CFP 00791); assay: MIC determination (EUCAST, minor modifications); assay type: cell-based; conditions: F. pedrosoi
Experimental: as §1

[12] = system: Fonsecaea nubica (CFP 00912); assay: MIC determination (EUCAST, minor modifications); assay type: cell-based; conditions: F. nubica; for MIC: 100% growth inhibition, read-out: MIC
Experimental: as §1

[13] = system: Phialophora verrucosa (CFP 00937); assay: MIC determination (EUCAST, minor modifications); assay type: cell-based; conditions: P. verrucosa
Experimental: as §1

[14] = system: Exophiala heteromorpha (ATCC 28180); assay: Minimum fungicidal concentration determination; assay type: cell-based; conditions: E. heteromorpha
Experimental: (§2) Minimum fungicidal concentration (MFC) was determined in triplicate by transferring a 5 μL aliquot from each well without fungal growth of the microdilution plates used for MIC determination, as described above, onto 2% glucose Sabouraud agar (Sigma Chemical Corporation). The MFC was determined as the lowest drug concentration without fungal growth on Sabouraud agar after five days of incubation at 35 °C. When the MFC/MIC ratio of a hit drug was 1 or 2, the substance was considered fungicidal against the pathogen. If this ratio was greater than 2, the hit drug was considered to be fungistatic.

[15] = system: Fonsecaea monophora (CFP 00911); assay: Minimum fungicidal concentration determination; assay type: cell-based; conditions: F. monophora
Experimental: as §2

[16] = system: Exophiala dermatitidis (ATCC 28869); assay: Minimum fungicidal concentration determination; assay type: cell-based; conditions: E. dermatitidis
Experimental: as §2

[17] = system: Rhinocladiela similis (CFP 00790); assay: Minimum fungicidal concentration determination; assay type: cell-based; conditions: R. similis
Experimental: as §2

[18] = system: Fonsecaea pedrosoi (CFP 00791); assay: Minimum fungicidal concentration determination; assay type: cell-based; conditions: F. pedrosoi
Experimental: as §2

[19] = system: Fonsecaea nubica (CFP 00912); assay: Minimum fungicidal concentration determination; assay type: cell-based; conditions: F. nubica
Experimental: as §2

[20] = system: Phialophora verrucosa (CFP 00937); assay: Minimum fungicidal concentration determination; assay type: cell-based; conditions: P. verrucosa
Experimental: as §2

[21] = system: Cladophialophora carrionii (CFP 00910); assay: Minimum fungicidal concentration determination; assay type: cell-based; conditions: C. carrionii
Experimental: The MFC was determined as the lowest drug concentration without fungal growth on Sabouraud agar after five days of incubation at 35 °C.

[22] = different species that cause CBM, highest concentration tested 80 µM, read-out: MIC

Cc1cccc2sc3nncn3c12 [tricyclazole]
melanin production [1]: changes the color of colonies from dark green, gray or black (due to melanin) to reddish brown | melanin production [2]: changes the color of colonies from dark green, gray or black (due to melanin) to reddish brown | melanin production [3]: changes the color of colonies from dark green, gray or black (due to melanin) to reddish brown

Clc1ccc(COC(Cn2ccnc2)c2ccc(Cl)cc2Cl)c(Cl)c1 (centres unmarked) [Miconazole nitrate]
inhibition at 10 µM [4]: 99%

CCC(C)n1ncn(-c2ccc(N3CCN(c4ccc(OCC5COC(Cn6cncn6)(c6ccc(Cl)cc6Cl)O5)cc4)CC3)cc2)c1=O (centres unmarked) [itraconazole]
inhibition at 10 µM [4]: 100%

C=CC[C@@H]1/C=C(\C)C[C@H](C)C[C@H](OC)[C@H]2O[C@@](O)(C(=O)C(=O)N3CCCC[C@H]3C(=O)O[C@H](/C(C)=C/[C@@H]3CC[C@@H](O)[C@H](OC)C3)[C@H](C)[C@@H](O)CC1=O)[C@H](C)C[C@@H]2OC [Tacrolimus]
inhibition at 10 µM [4]: 89%

OCCN1C[C@H](O)[C@@H](O)[C@H](O)[C@H]1CO [Miglitol]
inhibition at 10 µM [4]: 90% | MIC [5, 22]: > 80 µM

O=c1[nH]cc(F)c(=O)[nH]1 [5-Fluorouracil]
inhibition at 10 µM [4]: 85%

CC(=O)NC[C@H]1CN(c2ccc(N3CCOCC3)c(F)c2)C(=O)O1 [Linezolid]
inhibition at 10 µM [4]: 87% | MIC [5, 22]: > 80 µM

C[C@H](N[C@@H](CCc1ccccc1)C(=O)O)C(=O)N1CCC[C@H]1C(=O)O [Enalaprilat]
% Growth Inhibition [4]: 67% | MIC ([5]; different species that cause CBM, highest concentration tested 80 µM): above 80 µM

CN1CCCCC1CCN1c2ccccc2Sc2ccc([S+](C)[O-])cc21 (centres unmarked) [Mesoridazine (Serentil), Mesoridazine]
inhibition at 10 µM [4]: 86%

CCCCCCNC(=O)n1cc(F)c(=O)[nH]c1=O [Carmofur]
inhibition at 10 µM [4]: 100%

c1ccc2[nH]c(-c3cscn3)nc2c1 [Thiabendazole]
inhibition at 10 µM [4]: 82% | Selectivity Index (SI) ([6]; CC50 Vero 24 h / MIC): 49.75 | MIC ([6]; Exophiala heteromorpha, ATCC28180, 100% growth inhibition, read-out: MIC): 10 µM (≈ 2.01 µg/mL) | Selectivity Index (SI) ([7]; CC50 Vero 24 h / MIC): 99.50 | MIC ([7]; Fonsecaea monophora, 100% growth inhibition, read-out: MIC): 5 µM (≈ 1.01 µg/mL) | Selectivity Index (SI) ([8]; CC50 Vero 24 h / MIC): 99.50 | MIC ([8]; Cladophialophora carrionii, 100% growth inhibition, read-out: MIC): 5 µM (≈ 1.01 µg/mL) | Selectivity Index (SI) ([9]; CC50 Vero 24 h / MIC): 49.75 | MIC ([9]; Exophiala dermatitidis, ATCC28869, 100% growth inhibition, read-out: MIC): 10 µM (≈ 2.01 µg/mL) | MIC ([10]; 100% growth inhibition, read-out: MIC): 10 µM (≈ 2.01 µg/mL) | Selectivity Index (SI) ([10]; CC50 Vero 24 h / MIC): 49.75 | Selectivity Index (SI) ([11]; CC50 Vero 24 h / MIC): 99.50 | MIC ([11]; Fonsecaea pedrosoi, 100% growth inhibition, read-out: MIC): 5 µM (≈ 1.01 µg/mL) | Selectivity Index (SI) ([12]; CC50 Vero 24 h / MIC): 99.50 | MIC ([12]; Fonsecaea nubica): 5 µM (≈ 1.01 µg/mL) | Selectivity Index (SI) ([13]; CC50 Vero 24 h / MIC): 99.50 | MIC ([13]; Phialophora verrucosa, 100% growth inhibition, read-out: MIC): 5 µM (≈ 1.01 µg/mL) | MFC:MIC Ratio [14]: 8 | MFC ([14]; Exophiala heteromorpha, ATCC28180, read-out: MFC): 80 µM (≈ 16.1 µg/mL) | MFC:MIC Ratio [15]: 1 | fungicidal or fungistatic (MFC/MIC ratio) [15]: fungicidal (When the MFC/MIC ratio of a hit drug was 1 or 2, the substance was considered fungicidal) | MFC ([15]; Fonsecaea monophora, read-out: MFC): 5 µM (≈ 1.01 µg/mL) | MFC:MIC Ratio [16]: 8 | MFC ([16]; Exophiala dermatitidis, ATCC28869, read-out: MFC): 80 µM (≈ 16.1 µg/mL) | MFC:MIC Ratio [17]: 4 | MFC ([17]; read-out: MFC): 40 µM (≈ 8.05 µg/mL) | MFC:MIC Ratio [18]: 1 | fungicidal or fungistatic (MFC/MIC ratio) [18]: fungicidal (When the MFC/MIC ratio of a hit drug was 1 or 2, the substance was considered fungicidal) | MFC ([18]; Fonsecaea pedrosoi, read-out: MFC): 5 µM (≈ 1.01 µg/mL) | MFC:MIC Ratio [19]: 1 | fungicidal or fungistatic (MFC/MIC ratio) [19]: fungicidal (When the MFC/MIC ratio of a hit drug was 1 or 2, the substance was considered fungicidal) | MFC ([19]; Fonsecaea nubica, read-out: MFC): 5 µM (≈ 1.01 µg/mL) | MFC:MIC Ratio [20]: 4 | MFC ([20]; Phialophora verrucosa, read-out: MFC): 20 µM (≈ 4.03 µg/mL) | MFC:MIC Ratio [21]: 1 | fungicidal or fungistatic (MFC/MIC ratio) [21]: fungicidal (When the MFC/MIC ratio of a hit drug was 1 or 2, the substance was considered fungicidal) | MFC ([21]; Cladophialophora carrionii, read-out: MFC): 5 µM (≈ 1.01 µg/mL)

O=C(NCC1CCCCN1)c1cc(OCC(F)(F)F)ccc1OCC(F)(F)F (centres unmarked) [Flecainide Acetate]
inhibition at 10 µM [4]: 95%

CN(C)CC/C=C1/c2ccccc2COc2ccc(CC(=O)O)cc21 [Olopatadine (Patanol), Olopatadine]
inhibition at 10 µM [4]: 85%

CN[C@H]1CC[C@@H](c2ccc(Cl)c(Cl)c2)c2ccccc21 [Sertraline]
MIC [5, 22]: 10 to 40 µM

Clc1ccc(COC(Cn2ccnc2)c2ccc(Cl)cc2Cl)cc1 (centres unmarked) [Econazole nitrate]
inhibition at 10 µM [4]: 94%

Medroxyprogesterone
% Growth Inhibition [4]: 91%

Nc1nc(=O)[nH]cc1F [5-Fluorocytosine]
inhibition at 10 µM [4]: 68%

COCCCOc1ccnc(C[S+]([O-])c2nc3ccccc3[nH]2)c1C (centres unmarked) [Rabeprazole]
inhibition at 10 µM [4]: 61% | MIC [5, 22]: > 80 µM

CN1C(=O)CC[C@H]1c1cccnc1 [Cotinine (nicotine), Cotinine]
inhibition at 10 µM [4]: 71% | MIC [5, 22]: > 80 µM

O=c1[nH]c(=O)n([C@H]2C[C@H](O)[C@@H](CO)O2)cc1F [Floxuridine]
inhibition at 10 µM [4]: 86% | MIC [12]: 0.3125 µM (≈ 0.0769 µg/mL) | MIC ([5]; CBM agents except the Fonsecaea nubica isolate, read-out: MIC): > 80 µM
